Measured values: patent publication US9522962B2, “Peptides, conjugates and method for increasing immunogenicity of a vaccine” (Academisch Ziekenhuis Leiden h.o.d.n. LUMC, priority 2010, dated 2016)
Entries after “also recorded” stand apart in the source; their conditions may differ. Where two headings read alike, the source gives them in different places. Square brackets hold non-standard residues; d marks the D form. Ends that are not written are not given here. * marks the point of attachment. Biotin = O=C1N[C@H]2[C@H](CS[C@H]2CCCCC(=O)*)N1; code O = not defined here; Ahx = NCCCCCC(=O)O; For = O=C*

Tested on: antibodies in TETAQUIN® (anti-TTd antibodies)
Assay type: binding, human
Settings: for binding to TETAQUIN (screen of overlapping 22-mer TTx peptides): FIG. 3 (α-chain), FIG. 4 (β-chain); for ELISA OD, effect of longer spacer and C- versus N-terminal biotinylation: Table 4, antibody source not given
[1] = Table 2, length variants of peptide β-32, section 'With linker', […] diluted 800x, OD at 415 nm
[2] = Table 2, length variants of peptide β-32, section 'Without linker' (sequence listed without Z O), […]
[3] = Table 3, further length variants and Lys(formyl) variants, […], neg. control OD 0.30

Substance	OD [1]	OD [2]	OD [3]	further results
A N S K F I G I T E L K K L E S K I Z O (ANSKFIGITELKKLESKI-{Ahx-code O}; reading uncertain) [P4]	1.05	1.05		
A N S K F I G I T E L K K L E S Z O (ANSKFIGITELKKLES-{Ahx-code O}; reading uncertain) [P8]	0.85	0.85		
A N S K F I G I T E L K K L Z O (ANSKFIGITELKKL-{Ahx-code O}; reading uncertain) [P13]	0.6	0.6		
A N S K F I G I T E L K Z O (ANSKFIGITELK-{Ahx-code O}; reading uncertain) [P19]	0.2	0.2		
A N S K F I G I T E Z O (ANSKFIGITE-{Ahx-code O}; reading uncertain) [P26]	0.2	0.2		
A N S K F I G I Z O (ANSKFIGI-{Ahx-code O}; reading uncertain) [P34]	0.2	0.2		
AMDIEYNDMFNNFTVSFWLRVPZO [β41]				binding to TETAQUIN (screen of overlapping 22-mer TTx peptides): good binding; also recorded: antibodies present
E L K K L E S K I N K V F S Z O [0925-62]			0.35	
ELGKKFNIKTRLSYFSMNHDPVZO [α31]				binding to TETAQUIN (screen of overlapping 22-mer TTx peptides): good binding; also recorded: antibodies present
F I G I T E L J J L E S J I Z O [0925-70, J = Lys(formyl)]			1.00	
F I G I T E L J J L E S K I Z O [0925-67, J = Lys(formyl)]			1.15	
F I G I T E L J K L E S K I Z O [0925-64, J = Lys(formyl)]			1.70	
F I G I T E L K J L E S J I Z O [0925-69, J = Lys(formyl)]			1.65	
F I G I T E L K J L E S K I Z O [0925-65, J = Lys(formyl)]			1.50	
F I G I T E L K K L E S J I Z O (FIGITELKKLESK(For)I[Ahx]K; not fully specified (residue 16)) [0925-66, J = Lys(formyl)]			2.10	
FIGITELKKLESKINKVFST Z O [0925-52]			1.85	
F I G I T E L K K L E S K I N K V F S Z O [0925-53]			1.90	
F I G I T E L K K L E S K I N K V F Z Z O (FIGITELKKLESKINKVF[Ahx][Ahx]K; not fully specified (residue 21); also: O: biotin modification, exact residue form not clear)				ELISA OD, effect of longer spacer and C- versus N-terminal biotinylation: 1.16
F I G I T E L K K L E S K I N K V Z O (FIGITELKKLESKINKV[Ahx]K; not fully specified (residue 19); also: O: biotin modification, exact residue form not clear) [0925-55]			2.00	
F I G I T E L K K L E S K I N K V Z Z O (FIGITELKKLESKINKV[Ahx][Ahx]K(Biotin))				ELISA OD, effect of longer spacer and C- versus N-terminal biotinylation: 0.68
F I G I T E L K K L E S K I N K Z O (FIGITELKKLESKINK[Ahx]K(Biotin)) [0925-56]			1.55	
F I G I T E L K K L E S K I N K Z Z O (FIGITELKKLESKINK[Ahx][Ahx]K(Biotin))				ELISA OD, effect of longer spacer and C- versus N-terminal biotinylation: 0.65
F I G I T E L K K L E S K I N Z O (FIGITELKKLESKIN[Ahx]K(Biotin)) [0925-57]			1.65	

Substance	OD [1]	OD [2]	OD [3]	further results
F I G I T E L K K L E S K I N Z Z O (FIGITELKKLESKIN[Ahx][Ahx]K(Biotin))				ELISA OD, effect of longer spacer and C- versus N-terminal biotinylation: 0.64
F I G I T E L K K L E S K I Z O (FIGITELKKLESKI-{Ahx-code O}; reading uncertain) [P11]	1.0	1.0		
F I G I T E L K K L E S K I Z Z O (FIGITELKKLESKI[Ahx][Ahx]K(Biotin))				ELISA OD, effect of longer spacer and C- versus N-terminal biotinylation: 0.79
F I G I T E L K K L E S Z O (FIGITELKKLES-{Ahx-code O}; reading uncertain) [P17]	0.45	0.45		
F I G I T E L K K L Z O (FIGITELKKL-{Ahx-code O}; reading uncertain) [P24]	0.35	0.35		
F I G I T E L K Z O (FIGITELK-{Ahx-code O}; reading uncertain) [P32]	0.2	0.2		
G I T E L K K L E S K I N K Z O (GITELKKLESKINK[Ahx]K(Biotin)) [0925-59]			0.75	
G I T E L K K L E S K I Z O (GITELKKLESKI-{Ahx-code O}; reading uncertain) [P16]	0.45	0.45		
G I T E L K K L E S Z O (GITELKKLES-{Ahx-code O}; reading uncertain) [P23]	0.25	0.25		
G I T E L K K L Z O (GITELKKL-{Ahx-code O}; reading uncertain) [P31]	0.2	0.2		
I G I T E L K K L E S K I N Z O (IGITELKKLESKIN[Ahx]K(Biotin)) [0925-58]			1.45	
IKANSKFIGITELKKLESKI Z O (IKANSKFIGITELKKLESKI-{Ahx-code O}; reading uncertain) [P2]	1.2	1.2		
I K A N S K F I G I T E L K K L E S Z O (IKANSKFIGITELKKLES-{Ahx-code O}; reading uncertain) [P5]	0.9	0.9		
I K A N S K F I G I T E L K K L Z O (IKANSKFIGITELKKL-{Ahx-code O}; reading uncertain) [P9]	0.6	0.6		
I K A N S K F I G I T E L K Z O (IKANSKFIGITELK-{Ahx-code O}; reading uncertain) [P14]	0.2	0.2		
I K A N S K F I G I T E Z O (IKANSKFIGITE-{Ahx-code O}; reading uncertain) [P20]	0.2	0.2		
I K A N S K F I G I Z O (IKANSKFIGI-{Ahx-code O}; reading uncertain) [P27]	0.2	0.2		
I K A N S K F I Z O (IKANSKFI-{Ahx-code O}; reading uncertain) [P35]	0.2	0.2		
IGALETTGVVLLLEYIPEITLPZO [β18]				binding to TETAQUIN (screen of overlapping 22-mer TTx peptides): good binding; also recorded: antibodies present
J Z F I G I T E L K K L E S K I N K V F				ELISA OD, effect of longer spacer and C- versus N-terminal biotinylation: 0.17
J Z SKFIGITELKKLESKINKVF				ELISA OD, effect of longer spacer and C- versus N-terminal biotinylation: 0.28
J Z Z F I G I T E L K K L E S K I N K V F				ELISA OD, effect of longer spacer and C- versus N-terminal biotinylation: 0.22
J Z Z SKFIGITELKKLESKINKVF (SKFIGITELKKLESKINKVF) [J = Biotin (N-terminal), Z = Ahx]				ELISA OD, effect of longer spacer and C- versus N-terminal biotinylation: 0.47
